Assay results taken from patent US20110071169A1, “Preparation of polymorphic form of lapatinib ditosylate” (MAI DE LTD, priority 2009, published 2011).

Experiments:
[1] = Thermal phase stability on heating; format: physicochemical; settings: heating of the crystalline form
[2] = Stability study of bulk material (stability-indicating HPLC, polymorphic form); settings: elevated temperature and humidity (40° C./75%)
Protocol: The stability of Form A or Form B of lapatinib ditosylate bulk material and tablets is assessed by storing samples for up to 12 weeks at 25° C./60% RH or up to 5 weeks at 40° C./75% RH. Changes are monitored using a stability-indicating HPLC method. Results were calculated by normalized peak area (npa). Degradants are identified by comparison of their relative retention times against impurity standards.

[3] = Solubility in solvent mixtures; format: physicochemical
Protocol: The use of a relatively concentrated solution, e.g. about 5 mg/mL or above 5 mg/mL therefore is preferred.
In a preferred aspect, Form A of lapatinib ditosylate may be prepared by slurring starting material, crude or pure lapatinib ditosylate, anhydrate or solvate, which can be obtained according to the procedures described in U.S. Pat. No. 7,157,466 (or WO02/02552) with an organic solvent or a mixture of two or more organic solvents under heat. The lapatinib ditosylate is soluble in a mixture of water and THF, but not soluble in non-polar organic solvents. The preferred organic solvent is tetrahydrofuran. The concentration of lapatinib ditosylate within the solution may range from about 0.1% by weight to the saturation point. This concentration will, of course, vary depending upon the temperature at which the co-solvent solution is held, with warmer temperatures generally allowing for the preparation of more concentrated solutions of lapatinib ditosylate. Preferably, the concentration (w/w %) of lapatinib ditosylate starting material in solution is about 0.5-15%, preferably about 1-10%, more preferably about 1.5-5%. The volume ratio of tetrahydrofuran to water is about 50-95:50-5, preferably about 70-95:30-5, more preferably about 80-95:20-5, most preferably about 85:15. Water is then added into the above suspension, and the mixture is heated, suitably to a temperature in the range of from about 45° C. to 85° C., such as about 50° C. to 75° C., for example about 65-70° C. until all solid materials are dissolved. The clear and hot solution is allowed to cool down to ambient temperature, and the cooled solution is kept at ambient temperature for crystallization. The crystal Form A of lapatinib ditosylate is formed over a period of 1 hour to 4 days, and the crystal Form A is recovered from the solvent by filtration. The obtained crystal From A can be dried under a vacuum oven at about 20° C.-60° C., preferably at about 25° C.-50° C., more preferably at about 25° C.-35° C., and most preferably at […] for about 10-40 hours to remove the solvent residues.
In a preferred aspect, Form B of lapatinib ditosylate may be prepared by slurring starting material, crude or pure lapatinib ditosylate, anhydrate or solvate, which can be obtained according to the procedures described in U.S. Pat. No. 7,157,466 (or WO02/02552) with an organic solvent or a mixture of two or more organic solvents under heat. The lapatinib ditosylate is soluble in a mixture of water and THF, but not soluble in non-polar solvent. The preferred organic solvent is tetrahydrofuran. The concentration of lapatinib ditosylate within the solution may range from about 0.1% by weight to the saturation point. […]

Row | heating temperature up to which no phase transformation occurs [1] | time for which polymorph (phase) and chemical stability was demonstrated [2] | solubility (in words) ([3]; mixture of water and THF) | solubility (in words) ([3]; mixture of water and methanol or ethanol) | concentration of complete dissolution ([3]; mixture of water and methanol or ethanol, room temperature) [µg/mL] | solubility (in words) ([3]; non-polar organic solvents) | SMILES
1 | up to 40 °C | over 5 weeks | – | – | – | – | CS(=O)(=O)CCNCc1ccc(-c2ccc3ncnc(Nc4ccc(OCc5cccc(F)c5)c(Cl)c4)c3c2)o1.Cc1ccc(S(=O)(=O)O)cc1 [Form A, hydrate ditosylate salt of N-[3-chloro-4-[(3-fluorophenyl)methoxy]phenyl]-6-[5-[[[2-(methylsulfonyl)ethyl]amino]methyl]-2-furanyl]-4-Quinazolinamine]
2 | up to 45 °C | – | – | – | – | – | CS(=O)(=O)CCNCc1ccc(-c2ccc3ncnc(Nc4ccc(OCc5cccc(F)c5)c(Cl)c4)c3c2)o1.Cc1ccc(S(=O)(=O)O)cc1.Cc1ccc(S(=O)(=O)O)cc1 [Form B, ditosylate salt of N-[3-chloro-4-[(3-fluorophenyl)methoxy]phenyl]-6-[5-[[[2-(methylsulfonyl)ethyl]amino]methyl]-2-furanyl]-4-Quinazolinamine]
3 | – | – | soluble | moderately soluble | ≥ 5000 | not soluble | CS(=O)(=O)CCNCc1ccc(-c2ccc3ncnc(Nc4ccc(OCc5cccc(F)c5)c(Cl)c4)c3c2)o1.Cc1ccc(S(=O)(=O)O)cc1 [lapatinib ditosylate, N-[3-chloro-4-[(3-fluorophenyl)methoxy]phenyl]-6-[5-[[[2-(methylsulfonyl)ethyl]amino]methyl]-2-furanyl]-4-Quinazolinamine, bis(4-methylbenzenesulfonate)]
